Tested on: M1 macrophages and M2 macrophages differentiated from mouse bone marrow cells
Assay: Subtype identification by staining and flow cytometry of M1 and M2 macrophages differentiated from mouse bone marrow cells
Format: cell-based, Balb/c mouse
Procedure: The culture of subtypes was performed according to a protocol described in NPL 7. Specifically, bone marrow cells collected from the femur of a Balb/c mouse of 8 to 10 weeks old were dispersed to a concentration of 1×10^6/mL in an IMDM containing 20% FBS and 1% P/S, and 1×10^7 cells were seeded in a 100 mm dish. After further adding an M-CSF (manufactured by Pepro Tech) thereto to a concentration of 50 ng/mL, the cells were incubated for 3 to 4 days in the presence of 5% CO2 at 37° C., so as to differentiate macrophage precursor cells to macrophages. After exchanging the medium, the M-CSF was added to a concentration of 50 ng/mL, and the incubation was performed for further 3 to 4 days in the presence of 5% CO2 at 37° C., and then, the resulting cells were differentiated to macrophage. By adding 200 ng of interferon-γ and 1 μg of […] (both manufactured by Pepro Tech) to the IMDM containing 5% FBS and 1% P/S, the cells were differentiated to the subtype M1. Besides, by adding 100 ng of IL-4 to the IMDM containing 5% FBS and 1% P/S, the cells were differentiated to the subtype M2. After performing the incubation for further 3 days in the presence of 5% CO2 at 37° C., the resultant was rinsed with PBS, and PBS containing 0.25% trypsin and 1 mM EDTA (ethylenediaminetetraacetic acid) was used for collecting, from the dish, the macrophages having been differentiated to the subtypes M1 and M2.
Thereafter, the tube was centrifuged at 180 G for 10 minutes to remove the supernatant, a dye for identifying dead cells (aqua fluorescent reactive dye, manufactured by Invitrogen; which is hereinafter sometimes abbreviated as aqua) was added thereto, and the resultant was incubated at 4° C. for 10 minutes. Subsequently, the tube was centrifuged at 180 G for 10 minutes to remove the supernatant, cells were suspended in a FACS buffer to be analyzed by using FACSCanto (trademark) II flow cytometry apparatus manufactured by BD.
The analysis was performed on a cell population showing a low signal for the aqua, so as to analyze a cell population from which dead cells were eliminated. […] A histogram was prepared by plotting fluorescence intensity obtained in the FITC channel on the abscissa and plotting the number of cells at each fluorescence intensity on the ordinate, which is shown in FIG. 2.
Histograms were prepared by plotting fluorescence intensities obtained in the respective channels on the abscissa and plotting the numbers of cells at each fluorescence intensity on the ordinate. A difference between a fluorescence intensity (FM1) at a peak top of the histogram of the M1 macrophage and a fluorescence intensity (FM2) at a peak top of the histogram of the M2 macrophage is divided by a sum of a peak width (WM1) of the histogram of the M1 macrophage and a peak width (WM2) of the histogram of the M2 macrophage, so as to obtain a resolution R, which was used as an index of the identification ability for a subtype (see the following expression (1)). Resolution R=|FM1−FM2|/(WM1+WM2) Expression (1)

[1] = R=|FM1−FM2|/(WM1+WM2), compound 1 μM
[2] = fluorescence intensity at peak top of histogram, compound 1 μM, 37° C., 30 minutes
[3] = M1 vs M2 macrophages from mouse bone marrow cells, general formula (11) dyes (Table 9)
[4] = class based on resolution R, general formula (11) dyes (Table 9)
[5] = mouse bone marrow-derived M1 macrophages, channel listed per compound, general formula (11) dyes (Table 9)
[6] = mouse bone marrow-derived M2 macrophages, channel listed per compound, general formula (11) dyes (Table 9)
[7] = M1 vs M2 macrophages from mouse bone marrow cells, general formula (6) dyes (Table 7)
[8] = class based on resolution R, general formula (6) dyes (Table 7)
[9] = mouse bone marrow-derived M1 macrophages, channel listed per compound, general formula (6) dyes (Table 7)
[10] = mouse bone marrow-derived M2 macrophages, channel listed per compound, general formula (6) dyes (Table 7)

SMILES | Resolution ratio R [1] | Peak position of M1 macrophage [2] | Peak position of M2 macrophage [2] | Evaluation of macrophage subtype identification (rated from resolution R) | further results
O=C(O)CN1C(=O)/C(=C\C=C\c2ccc3c(c2)C2CCCC2N3c2ccccc2)SC1=S (centres unmarked) [(85)] | 0.179 | 225 | 285 | B (the compound is good in the subtype identification (namely, the resolution R is 0.15 or more and less than 0.5)) | –
CC1=CC(C)=[N+]2C1=C(c1ccccc1)c1c(C)cc(C)n1[B-]2(F)F [(148)] | – | – | – | – | Resolution ratio R [3]: 0.193; Evaluation of macrophage subtype identification [4]: B (the compound is good in the subtype identification (namely, the resolution R is 0.15 or more and less than 0.5)); Peak position of M1 macrophage [5]: 109; Peak position of M2 macrophage [6]: 151
CCOC(=O)CN1C(=O)/C(=C\c2ccc3c(c2)C2CCCC2N3c2ccc(C=C(c3ccccc3)c3ccccc3)cc2)SC1=S (centres unmarked) [(19)] | 0.319 | 0.90 | 0.64 | B (the compound is good in the subtype identification (namely, the resolution R is 0.15 or more and less than 0.5)) | –
CCOC(=O)Cn1c(=O)/c(=C\c2ccc3c(c2)C2CCCC2N3c2ccc(OC)cc2)s/c1=C1/SC(=O)N(CC)C1=O (centres unmarked) [(45)] | 0.822 | 18.2 | 4.84 | A (The compound is very good in the subtype identification (namely, the resolution R is 0.5 or more)) | –
O=C(O)CCCCCN1C(=O)/C(=C\c2ccc3c(c2)C2CCCC2N3c2ccccc2)SC1=S (centres unmarked) [(17)] | 0.577 | 7.74 | 16.5 | A (The compound is very good in the subtype identification (namely, the resolution R is 0.5 or more)) | –
CCN(CC)c1ccc2cc(-c3nc4ccccc4n3C)c(=O)oc2c1 [(119)] | – | – | – | – | Resolution ratio R (M1 vs M2 macrophages from mouse bone marrow cells, general formula (10) dyes (Table 8)): 0.273; Evaluation of macrophage subtype identification (class based on resolution R, general formula (10) dyes (Table 8)): B (the compound is good in the subtype identification (namely, the resolution R is 0.15 or more and less than 0.5)); Peak position of M1 macrophage (mouse bone marrow-derived M1 macrophages, channel listed per compound, general formula (10) dyes (Table 8)): 2.60; Peak position of M2 macrophage (mouse bone marrow-derived M2 macrophages, channel listed per compound, general formula (10) dyes (Table 8)): 3.94
CCN1/C(=C\C=C\c2oc3ccccc3[n+]2CC)Oc2ccccc21 [(98)] | – | – | – | – | Resolution ratio R [7]: 0.507; Evaluation of macrophage subtype identification [8]: A (The compound is very good in the subtype identification (namely, the resolution R is 0.5 or more)); Peak position of M1 macrophage [9]: 21.95; Peak position of M2 macrophage [10]: 61.59
CSc1ccc(N2c3ccc(/C=C4/SC(=S)N(CCC(=O)O)C4=O)cc3C3CCCC32)cc1 (centres unmarked) [(6)] | 0.504 | 26.5 | 50.4 | A (The compound is very good in the subtype identification (namely, the resolution R is 0.5 or more)) | –
COc1ccc2cc(N3c4ccc(/C=C5/SC(=S)N(CCC(=O)O)C5=O)cc4C4CCCC43)ccc2c1 (centres unmarked) [(22)] | 0.389 | 199 | 313 | B (the compound is good in the subtype identification (namely, the resolution R is 0.15 or more and less than 0.5)) | –
CSc1ccc(N2c3ccc(/C=C4/SC(=S)N(CC(=O)O)C4=O)cc3C3CCCC32)cc1 (centres unmarked) [(30)] | 0.257 | 55.1 | 73.9 | B (the compound is good in the subtype identification (namely, the resolution R is 0.15 or more and less than 0.5)) | –
COc1ccc2cc(N3c4ccc(/C=C5\C(=O)N(c6ccc(C(=O)O)cc6)N=C5C)cc4C4CCCC43)ccc2c1 (centres unmarked) [(36)] | 0.344 | 5.70 | 3.82 | B (the compound is good in the subtype identification (namely, the resolution R is 0.15 or more and less than 0.5)) | –
Cc1cc(C)n2c1C=C1C=CC(CCC(=O)NN)=[N+]1[B-]2(F)F [(166)] | – | – | – | – | Resolution ratio R [3]: 0.722; Evaluation of macrophage subtype identification [4]: A (The compound is very good in the subtype identification (namely, the resolution R is 0.5 or more)); Peak position of M1 macrophage [5]: 127; Peak position of M2 macrophage [6]: 56.3
COc1ccc(N2c3ccc(/C=C4\C(=O)N(c5ccccc5)N=C4C(=O)O)cc3C3CCCC32)cc1 (centres unmarked) [compound (33)] | 0.522 | 5.00 | 9.05 | A (The compound is very good in the subtype identification (namely, the resolution R is 0.5 or more)) | subtype more strongly stained (two compounds used in combination, each 1 μM): the M2 macrophages are more strongly stained than the M1 macrophages
CCOC(=O)CN1C(=O)/C(=C\c2ccc3c(c2)C2CCCC2N3c2ccccc2)SC1=S (centres unmarked) [(48)] | 0.621 | 65.4 | 9.74 | A (The compound is very good in the subtype identification (namely, the resolution R is 0.5 or more)) | –
CCCN1c2ccc(/C=C3/SC(=S)N(CCC(=O)O)C3=O)cc2C2CCCC21 (centres unmarked) [(9)] | 0.828 | 2.63 | 6.69 | A (The compound is very good in the subtype identification (namely, the resolution R is 0.5 or more)) | –
COc1ccc(N2c3ccc(/C=C/C4=[N+](C)c5ccccc5C4(C)C)cc3C3CCCC32)cc1 (centres unmarked) [(62)] | 0.561 | 193 | 333 | A (The compound is very good in the subtype identification (namely, the resolution R is 0.5 or more)) | Selectivity (subtype strongly stained): M2
CCN1c2ccc(/C=C/C=C3/SC(=S)N(CCC(=O)O)C3=O)cc2C2CCCC21 (centres unmarked) [(76)] | 0.283 | 7.77 | 10.5 | B (the compound is good in the subtype identification (namely, the resolution R is 0.15 or more and less than 0.5)) | –
CN1\C(=C/C=C/C=C/C2=[N+](C)c3ccc4ccccc4c3C2(C)C)C(C)(C)c2c1ccc1ccccc21 [(92)] | – | – | – | – | Resolution ratio R [7]: 0.534; Evaluation of macrophage subtype identification [8]: A (The compound is very good in the subtype identification (namely, the resolution R is 0.5 or more)); Peak position of M1 macrophage [9]: 2.27; Peak position of M2 macrophage [10]: 3.9

Reference: US10041937B2, “Macrophage identification agent, and identification method, sorting method, evaluation method, screening method and kit using the macrophage identifier agent” (CANON KABUSHIKI KAISHA, priority 2013, dated 2018)
